# Laboratory results from patent US10800789B2, “Antiviral compounds” (Gilead Pharmasset LLC, priority 2012, dated 2020).
# Read-outs that look alike come from different tables or passages of the source.
# Legend:
# [1] = tested on: NS5A chimeric genotype 2a JFH-1 replicon with genotype 2b MD2b-1 strain NS5A gene (M31 present); experiment: Replicon assay, genotype 2b NS5A chimera; type: cell-based, HCV; settings: Hepatitis C virus
# Outline: (§1)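 EC50 was fitted by non-linear regression to Renilla luciferase signal after 72 h of exposure to 3-fold serially diluted compound (10 mM DMSO stocks). Controls were DMSO (none) and ITMN-191 above 100×EC50 (full). Chimeric 2a replicons were used either stable or transiently transfected into Huh-Lunet cells.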
# [2] = tested on: NS5A chimeric genotype 2a JFH-1 replicon with genotype 2a J6 strain NS5A gene (M31 present); experiment: Replicon assay, genotype 2a J6 NS5A chimera; type: cell-based, HCV; settings: Hepatitis C virus
# Outline: as §1
# [3] = tested on: NS5A chimeric genotype 1b Con1 replicon with genotype 4a ED43 strain NS5A gene; experiment: Replicon assay, genotype 4a NS5A chimera; type: cell-based, HCV; settings: Hepatitis C virus
# [4] = tested on: stable HCV 2a JFH-1 Rluc replicon cells (L31 present in NS5A); experiment: Renilla luciferase HCV replicon reporter assay, genotype 2a JFH-1; type: cell-based; settings: Hepatitis C virus
# Outline: (§2)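 First, 3-fold serial dilutions of compound went onto replicon cells, DMSO serving as no-inhibition control and ITMN-191 at >100×EC50 as positive control. Next came 72 h incubation, lysis and Renilla luciferase measurement. Finally, EC50 was calculated by non-linear regression; replicons covered genotypes 1a H77, 1b Con1, 2a JFH-1 (L31) and J6-NS5A chimera (M31).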
# [5] = tested on: stable HCV 1b RLuc replicon cells (dicistronic genotype 1b Con1 replicon); experiment: Renilla luciferase HCV replicon reporter assay, genotype 1b; type: cell-based; settings: Hepatitis C virus, 72 h, stable 1b Con1 RLuc replicon cells, 72 hours; read-out: 1b
# Outline: as §2
# [6] = tested on: NS5A chimeric genotype 1b Con1 replicon with genotype 3a S52 strain NS5A gene; experiment: Replicon assay, genotype 3a NS5A chimera; type: cell-based, HCV; settings: Hepatitis C virus
# [7] = tested on: stable HCV 1a RLuc replicon cells (dicistronic genotype 1a H77 replicon); experiment: Renilla luciferase HCV replicon reporter assay, genotype 1a; type: cell-based; settings: Hepatitis C virus, 72 h, stable 1a H77 RLuc replicon cells
# Outline: as §2
# [8] = 2BS, read-out: 2b (s), stably replicating replicon cells (s), activity range
# [9] = read-out: 2b (s) (nM), genotype 2b MD2b-1 NS5A chimeric replicon (M31), stably replicating replicon cells (s)
# [10] = read-out: 2a J6 (t) (nM), genotype 2a J6 NS5A chimeric replicon (M31), transiently transfected (t) into Huh-Lunet cells
# [11] = read-out: 2a J6 (t), transiently transfected (t) into Huh-Lunet cells, activity range
# [12] = read-out: 4a (s) (nM), genotype 4a NS5A chimeric replicon, stable replicon cells (s)
# [13] = read-out: 4a (s), (s), activity range
# [14] = read-out: 2a JFH (nM), genotype 2a JFH-1 replicon (L31 in NS5A), stable cells
# [15] = read-out: 2a JFH, stable 2a JFH-1 Rluc replicon cells, L31 in NS5A, activity range
# [16] = read-out: 3a (s) (nM), genotype 3a NS5A chimeric replicon, stable replicon cells (s)
# [17] = read-out: 3a (s), (s), activity range
SMILES,"EC50 [1, 8]","EC50 [1, 9]","EC50 [2, 10]","EC50 [2, 11]","EC50 [3, 12]","EC50 [3, 13]","EC50 [4, 14]","EC50 [4, 15]",EC50 [5],"EC50 [6, 16]","EC50 [6, 17]",EC50 [7],EC50 ([7]; activity range)
COC(=O)N[C@@H](CO)C(=O)N1[C@@H](C)CC[C@H]1c1nc2ccc3cc4c(cc3c2[nH]1)OCc1cc(-c2cnc([C@@H]3CC[C@H](C)N3C(=O)[C@@H](NC(=O)OC)C(C)C)[nH]2)ccc1-4 [GZ],1 to 44 nM,1.15 nM,0.534 nM,0.1 to 0.999 nM,0.031 nM,< 0.1 nM,0.019 nM,< 0.1 nM,0.045 nM,0.158 nM,0.1 to 0.999 nM,0.042 nM,< 0.1 nM
CCC[C@H](NC(=O)OC)C(=O)N1[C@@H](C)CC[C@H]1c1ncc(-c2ccc3c(c2)COc2cc4c(ccc5nc([C@@H]6CC[C@H](C)N6C(=O)[C@H](CCC)NC(=O)OC)[nH]c54)cc2-3)[nH]1 [HA],1 to 44 nM,5.42 nM,4.12 nM,1 to 44 nM,0.028 nM,< 0.1 nM,0.033 nM,< 0.1 nM,0.019 nM,0.132 nM,0.1 to 0.999 nM,0.018 nM,< 0.1 nM
[2H]C([2H])([2H])C([2H])(C([2H])([2H])[2H])[C@]([2H])(NC(=O)OC)C(=O)N1[C@@H](C)CC[C@H]1c1ncc(-c2ccc3c(c2)COc2cc4c(ccc5nc([C@@H]6CC[C@H](C)N6C(=O)[C@@]([2H])(NC(=O)OC)C([2H])(C([2H])([2H])[2H])C([2H])([2H])[2H])[nH]c54)cc2-3)[nH]1 [HB],0.1 to 0.999 nM,0.49 nM,0.155 nM,0.1 to 0.999 nM,0.011 nM,< 0.1 nM,0.011 nM,< 0.1 nM,0.012 nM,0.038 nM,< 0.1 nM,0.012 nM,< 0.1 nM
COC(=O)N[C@@H](C)C(=O)N1[C@@H](C)CC[C@H]1c1nc2ccc3cc4c(cc3c2[nH]1)OCc1cc(-c2cnc([C@@H]3CC[C@H](C)N3C(=O)[C@@H](NC(=O)OC)C(C)C)[nH]2)ccc1-4 [HC],1 to 44 nM,1.82 nM,1.43 nM,1 to 44 nM,0.014 nM,< 0.1 nM,0.014 nM,< 0.1 nM,0.016 nM,0.105 nM,0.1 to 0.999 nM,0.012 nM,< 0.1 nM
COC(=O)N[C@H](C(=O)N1[C@@H](C)CC[C@H]1c1ncc(-c2ccc3c(c2)COc2cc4c(ccc5nc([C@@H]6CC[C@H](C)N6C(=O)[C@@H](NC(=O)OC)C6CC6)[nH]c54)cc2-3)[nH]1)C(C)C [HD],1 to 44 nM,1.9 nM,1.39 nM,1 to 44 nM,0.016 nM,< 0.1 nM,0.017 nM,< 0.1 nM,0.017 nM,0.102 nM,0.1 to 0.999 nM,0.015 nM,< 0.1 nM
COC(=O)N[C@H](C(=O)N1[C@@H](C)CC[C@H]1c1ncc(-c2ccc3c(c2)COc2cc4c(ccc5nc([C@@H]6CC[C@H](C)N6C(=O)[C@@H](NC(=O)OC)C6CCCCC6)[nH]c54)cc2-3)[nH]1)C(C)C [HE],1 to 44 nM,1.59 nM,0.677 nM,0.1 to 0.999 nM,0.014 nM,< 0.1 nM,0.017 nM,< 0.1 nM,0.02 nM,0.074 nM,< 0.1 nM,0.011 nM,< 0.1 nM
COC(=O)N[C@@H](C)C(=O)N1[C@@H](C)CC[C@H]1c1ncc(-c2ccc3c(c2)COc2cc4c(ccc5nc([C@@H]6CC[C@H](C)N6C(=O)[C@H](C)NC(=O)OC)[nH]c54)cc2-3)[nH]1 [HF],1 to 44 nM,16.3 nM,19.5 nM,1 to 44 nM,0.111 nM,0.1 to 0.999 nM,0.06 nM,< 0.1 nM,0.066 nM,0.556 nM,0.1 to 0.999 nM,0.043 nM,< 0.1 nM
COC(=O)N[C@H](C(=O)N1CCC[C@H]1c1ncc(-c2ccc3c(c2)COc2cc4c(ccc5nc([C@@H]6CCCN6C(=O)[C@@H](NC(=O)OC)[C@@H](C)OC)[nH]c54)cc2-3)[nH]1)[C@@H](C)OC [HG],0.1 to 0.999 nM,0.733 nM,0.185 nM,0.1 to 0.999 nM,0.033 nM,< 0.1 nM,0.021 nM,< 0.1 nM,0.109 nM,0.129 nM,0.1 to 0.999 nM,0.06 nM,< 0.1 nM
COC(=O)N[C@H](C(=O)N1CCC[C@H]1c1ncc(-c2ccc3c(c2)COc2cc4c(ccc5nc([C@@H]6CCCN6C(=O)[C@@H](NC(=O)OC)C6CCOCC6)[nH]c54)cc2-3)[nH]1)C1CCOCC1 [HI],0.1 to 0.999 nM,0.203 nM,0.2 nM,0.1 to 0.999 nM,0.111 nM,0.1 to 0.999 nM,0.041 nM,< 0.1 nM,0.416 nM,0.447 nM,0.1 to 0.999 nM,0.203 nM,0.1 to 0.999 nM
CC[C@H]1C[C@@H](c2nc3ccc4cc5c(cc4c3[nH]2)OCc2cc(-c3cnc([C@@H]4CC[C@H](C)N4C(=O)[C@@H](NC(=O)OC)C(C)C)[nH]3)ccc2-5)N(C(=O)[C@H](C)NC(=O)OC)C1 [HK],1 to 44 nM,11.5 nM,0.878 nM,0.1 to 0.999 nM,0.02 nM,< 0.1 nM,0.034 nM,< 0.1 nM,0.026 nM,0.705 nM,0.1 to 0.999 nM,0.017 nM,< 0.1 nM
COC(=O)N[C@@H](C)C(=O)N1[C@@H](C)CC[C@H]1c1ncc(-c2ccc3c(c2)COc2cc4c(ccc5nc([C@@H]6CC[C@H](C)N6C(=O)[C@@H](NC(=O)OC)C(C)C)[nH]c54)cc2-3)[nH]1 [HL],1 to 44 nM,3.72 nM,1.43 nM,1 to 44 nM,0.02 nM,< 0.1 nM,0.019 nM,< 0.1 nM,0.021 nM,0.127 nM,0.1 to 0.999 nM,0.017 nM,< 0.1 nM
COC(=O)N[C@H](C(=O)N1C(c2ncc(-c3ccc4c(c3)COc3cc5c(ccc6nc(C7C[C@H](C)CN7C(=O)[C@@H](NC(=O)OC)C(C)(C)C)[nH]c65)cc3-4)[nH]2)CC[C@@H]1C)C(C)C (stereo partly drawn) [HN],1 to 44 nM,2.86 nM,1.1 nM,1 to 44 nM,0.018 nM,< 0.1 nM,0.018 nM,< 0.1 nM,0.012 nM,0.282 nM,0.1 to 0.999 nM,0.01 nM,< 0.1 nM
COC(=O)N[C@H](C(=O)N1[C@@H](C)CC[C@H]1c1nc2ccc3cc4c(cc3c2[nH]1)OCc1cc(-c2cnc([C@@H]3[C@@H]5C[C@@H]5CN3C(=O)[C@@H](NC(=O)OC)C3CCOCC3)[nH]2)ccc1-4)C(C)C [HO],0.1 to 0.999 nM,0.639 nM,0.207 nM,0.1 to 0.999 nM,0.04 nM,< 0.1 nM,0.022 nM,< 0.1 nM,0.074 nM,0.136 nM,0.1 to 0.999 nM,0.059 nM,< 0.1 nM
COC(=O)N[C@H](C(=O)N1[C@@H](C)CC[C@H]1c1nc2ccc3cc4c(cc3c2[nH]1)OCc1cc(-c2cnc([C@@H]3[C@@H]5C[C@@H]5CN3C(=O)[C@@H](NC(=O)OC)[C@@H](C)OC)[nH]2)ccc1-4)C(C)C [HP],1 to 44 nM,1.02 nM,0.22 nM,0.1 to 0.999 nM,0.023 nM,< 0.1 nM,0.014 nM,< 0.1 nM,0.026 nM,0.079 nM,< 0.1 nM,0.019 nM,< 0.1 nM
COC(=O)N[C@H](C(=O)N1C[C@H]2C[C@H]2[C@H]1c1ncc(-c2ccc3c(c2)COc2cc4c(ccc5nc([C@@H]6CC[C@H](C)N6C(=O)[C@@H](NC(=O)OC)C(C)C)[nH]c54)cc2-3)[nH]1)C(C)C [HR],1 to 44 nM,2.18 nM,1.12 nM,1 to 44 nM,0.015 nM,< 0.1 nM,0.022 nM,< 0.1 nM,0.024 nM,0.047 nM,< 0.1 nM,0.015 nM,< 0.1 nM
